Results: patent US12637720B2, “Molecular subtyping of small cell lung cancer to predict therapeutic responses” (Board of Regents, The University of Texas System, priority 2019, dated 2026)

Assays:
SCLC cell lines = test: Cisplatin CellTiter-Glo cell viability, IC50 compared between SCLC subtypes; type: cell-based
Description: Drug response data. With the exception of cisplatin (Allison Stewart et al., 2017; Gay et al., 2019), drug response data included publicly available data sets (Polley et al., 2016). For cisplatin, cell lines were plated at 2,000 cells per well in 96-well plates 24 hours prior to treatment with drug using standard cell culture conditions. Each line was treated, in triplicate, with cisplatin at starting concentration of 10 μmon followed by 1:3 serial dilutions and DMSO-only control. Following 120-hour incubations, cell viability was assessed using CellTiter-Glo Luminescent Cell Viability Assay (Promega). IC50 values were estimated using software program drexplorer with fitting of multiple dose-response models and selection of best model using the residual standard error.
While there are biological differences between each subtype, it not known to what extent these differences yield distinct responses to anti-cancer therapies. To investigate subtype-specific vulnerabilities, SCLC cell line in vitro drug response data for over 500 drugs were used (Gay, 2019; Polley et al., 2016). […] For each subtype, a drug or drug class that worked especially well was identified, often accompanied by differential expression of the drug target or putative predictive biomarker.

[1] = test system: MDA-SC53 and MDA-SC68 CDX models; test: Cisplatin treatment of CTC-derived xenograft (CDX) models; type: in vivo, mice
Source text: Circulating-tumor cell derived xenograft model generation. Patients diagnosed with SCLC at the University of Texas MD Anderson Cancer Center were selected on the basis of extensive-stage disease irrespective of age, gender or other clinical criteria. These patients underwent informed consent to Institutional Review Board (IRB)-approved protocol LAB10-0442 (“Evaluation of blood-based test for the detection of circulating tumor cells and circulating proteins and microRNAs and molecular analysis for polymorphisms and mutations”) and blood was collected. Technical details are as previously described (Stewart et al., 2020b). One vial of blood was collected for isolation and banking of plasma and peripheral blood mononuclear cells for use as a normal control. […] Mice were monitored for formation of a flank tumor and were euthanized when tumor burden reached 1000-1500 mm^3. […]
Single-cell RNAseq. […] Cells were then stained for anti-human HLA A647 (Biolegend 311414), Calcein AM (C3100MP) and DAPI (Lifetech D1306, 1 μg/mL) and sorted by Fluorescence-Activated Cell sorting (FACS) to select only live, human cells for downstream single cell transcriptomic analyses. Sorted cells were washed once with 0.04% BSA in PBS and counted on Countess II automated cell counter (ThermoFisher). […]

platinum-resistant SCLC = conditions: patients with platinum-resistant SCLC; cited from earlier work
relapsed SCLC = conditions: single-agent, relapsed SCLC patients, KEYNOTE-158; cited from earlier work
DLL3 = target: T1, DLL3 (Homo sapiens, UniProt Q9NYJ7); conditions: cited from earlier work
T1 construct: host or cells: SCLC tumours of patients in the clinical trial (endogenous DLL3)
T1 sequence (Q9NYJ7 27-618): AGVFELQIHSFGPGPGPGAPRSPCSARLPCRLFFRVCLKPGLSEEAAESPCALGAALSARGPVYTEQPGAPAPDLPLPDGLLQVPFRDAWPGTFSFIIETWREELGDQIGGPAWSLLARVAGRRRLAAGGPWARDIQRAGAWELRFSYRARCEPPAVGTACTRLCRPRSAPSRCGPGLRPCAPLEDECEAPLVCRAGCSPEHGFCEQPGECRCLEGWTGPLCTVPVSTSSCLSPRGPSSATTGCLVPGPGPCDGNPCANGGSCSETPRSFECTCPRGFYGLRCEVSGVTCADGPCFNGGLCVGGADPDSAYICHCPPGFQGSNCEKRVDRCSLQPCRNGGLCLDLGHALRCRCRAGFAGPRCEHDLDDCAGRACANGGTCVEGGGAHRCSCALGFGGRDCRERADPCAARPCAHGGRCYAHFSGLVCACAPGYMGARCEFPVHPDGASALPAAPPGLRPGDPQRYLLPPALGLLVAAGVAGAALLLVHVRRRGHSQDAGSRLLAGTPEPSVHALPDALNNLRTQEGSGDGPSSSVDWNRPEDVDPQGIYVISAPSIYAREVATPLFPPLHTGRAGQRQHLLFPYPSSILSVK

N.N.[Cl][Pt][Cl] [cisplatin]
cisplatin sensitivity of SCLC-A models (SCLC cell lines; SCLC-A): range of sensitivities
cisplatin sensitivity of SCLC-I models (SCLC cell lines; SCLC-I): resistant
cisplatin sensitivity of SCLC-N models (SCLC cell lines; SCLC-N): resistant
cisplatin sensitivity of SCLC-P models (SCLC cell lines; SCLC-P, mean IC50 versus other subtypes, trend): most sensitive
response of CDX model to cisplatin ([1]; MDA-SC68rel model, relapsed after in vivo cisplatin treatment): cisplatin-resistant
response of CDX model to cisplatin ([1]; treatment-naive MDA-SC68 parental model): cisplatin-sensitive

nivolumab: anti-PD-1 antibody described in WO2006/121168
overall survival benefit versus chemotherapy (platinum-resistant SCLC): preferential OS benefit

pembrolizumab: anti-PD-1 antibody described in WO2009/114335
response rate (relapsed SCLC): 19%

B1: rovalpituzumab tesirine: ADC targeting the inhibitory Notch ligand Delta-like ligand 3 (DLL3) (conjugate, chains of the INN, looked up)
VH: QVQLVQSGAEVKKPGASVKVSCKASGYTFTNYGMNWVRQAPGQGLEWMGWINTYTGEPTYADDFKGRVTMTTDTSTSTAYMELRSLRSDDTAVYYCARIGDSSPSDYWGQGTLVTVSS
VL: EIVMTQSPATLSVSPGERATLSCKASQSVSNDVVWYQQKPGQAPRLLIYYASNRYTGIPARFSGSGSGTEFTLTISSLQSEDFAVYYCQQDYTSPWTFGQGTKLEIK
modifications: tesirine
clinical activity (DLL3; Phase II clinical trial for SCLC): only modest activity
toxicity (DLL3; Phase II clinical trial, of the conjugated cytotoxic molecule): unexpected toxicity
